Patent US8921409B2, “Combination of 4-{3-[cis-hexahydrocyclopenta[c]pyrrol-2(1H)-yl]propoxy}benzamide and a NMDA receptor antagonist and pharmaceutical compositions containing the same” (Les Laboratoires Servier, priority 2011, dated 2014)
Counter-ions that a name gives are not always drawn.

Tested on: middle-aged (14-15 months old) C57B16 mouse
Test: Contextual serial discrimination test (model of episodic memory)
Assay type: in vivo
Text: The effects of 4-{3-[cis-hexahydrocyclopenta[c]pyrrol-2(1H)-yl]propoxy}benzamide and memantine (both in the form of a hydrochloride), administered on their own or in combination, were studied using a contextual discrimination test in the middle-aged (14-15 months old) C57B16 mouse (n=12 per group) (Célérier et al., Learn Mem., 2004, 11(2), 196-204; Tronche et al., Behav. Brain Res., 2010, 215(2): 255-60). In this model, the middle-aged mice have a specific dysfunction of contextual episodic memory compared to young mice, without a deficiency in spatial memory. This model is relevant for evaluating the effects of products in Alzheimer's disease because patients suffering from that form of dementia also have disturbances of contextual episodic memory, this being the case from a very early stage (Gold and Budson, Expert Rev Neurother., 2008, 8(12): 1879-1891).
The mice, placed in a box with raised edges, learn two types of consecutive spatial discrimination (D1: white floor, then D2: black floor) on a floor with four holes, in which just one of the holes is baited, the arrangement being opposite in D1 and in D2. The colour of the floor (black or white) constitutes the internal context specific to each discrimination. 24 hours after the learning step, the mice are returned to the white contextual floor, and the following are measured: • the percentage of correct responses (i.e. % of lowering the head into the hole that was baited during the learning exercise on the white floor), • the percentage of interfering responses (i.e. % of lowering the head into the hole that was baited during the learning exercise on the black floor, the last context presented to the mice), • and the percentage of errors (i.e. % of lowering the head into the two holes that were not baited during learning, whether on the white floor or on the black floor (see FIG. 1).
The power of contextual memory is defined as being the difference between the percentage of correct responses and the percentage of interfering responses. […]

SMILES	power of contextual memory (% correct responses minus % interfering responses) (memantine hydrochloride 1 mg/kg of base per os, chronic treatment for 9 days, carrier −34%) [%]	power of contextual memory (% correct responses minus % interfering responses) (compound S hydrochloride 0.1 mg/kg of base per os, chronic treatment for 9 days, carrier −34%) [%]	power of contextual memory (% correct responses minus % interfering responses) (compound S on its own, 1 mg/kg of base per os)
CC12CC3CC(C)(C1)CC(N)(C3)C2 [memantine hydrochloride, memantine, reference compound]	−2	–	–
NC(=O)c1ccc(OCCCN2C[C@H]3CCC[C@H]3C2)cc1 [compound S, 4-{3-[cis-hexahydrocyclopenta[c]pyrrol-2(1H)-yl]propoxy}benzamide]	–	−15	+14%
